# Target: T1, Human MIF (MIF tautomerase) (Homo sapiens, UniProt P14174)
# T1 construct: purchased ProSpec
# T1 sequence (P14174 2-115 limits assumed): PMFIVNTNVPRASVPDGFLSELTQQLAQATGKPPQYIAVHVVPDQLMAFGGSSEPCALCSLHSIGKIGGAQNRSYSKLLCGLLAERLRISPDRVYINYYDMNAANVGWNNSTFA
# Experiment: MIF Tautomerase Inhibitory Assay with L-Dopachrome Methyl Ester
# Assay type: biochemical
# Conditions: relative potency class, MIF tautomerase inhibition; L-dopachrome methyl ester substrate, pH 7.34, no pre-incubation; read-out: IC50
# Method: MIF Tautomerase Inhibitory Assay with L-Dopachrome Methyl Ester
# Assay Method (pH 7.34, 0.017-0.033% DMSO, 0.034% EtOH): A fresh stock solution of L-dopachrome methyl ester in MeOH was prepared at 55-65 mM through oxidation of L-3,4-dihydroxyphenylalanine methyl ester hydrochloride with sodium periodate according to the procedure described in WO9729635A1. MeOH was removed from 0.5 mL of the L-dopachrome methyl ester/MeOH solution (55-65 mM) under a stream of argon and the residue taken up in appropriate amount of water to prepare a substrate solution (7-10 mM). Active Human MIF (from ProSpec) ([…]) was dissolved in 675 μL 0.1% bovine serum albumin (BSA) in water, and the resultant MIF solution (1 volume) mixed with 55 volumes of Na2HPO4 buffer (50 mM, pH 7.34) to form a 265 ng/mL MIF working solution. MIF working solution (280 μL) or a no-MIF working solution (prepared by mixing 0.1% BSA (1 volume) with the aforementioned Na2HPO4 buffer (55 volumes)) was transferred to wells in a column of 8 wells on a 96-well plate in a Plate Reader (SPECTRAmax Plus 384, Molecular Devices), and 5 μL of H2O/DMSO (99/1) containing no inhibitor or an inhibitor (whose concentration was verified by HPLC). Without pre-mixing or pre-incubation, 10 μL freshly prepared L-dopachrome methyl ester/H2O solution (7-10 mM) was added to each well with a multi-pipet. The assay samples were mixed immediately by sucking up and expelling the contents of the wells three times with a multi-pipet. The absorbance (A1) at 475 nm was then recorded for each sample every 2 s for 3 min. After 5-6 min, the samples were monitored again for 3 min with a reading every two seconds at 475 nm (A2). It can be shown that when [substrate]<<Km, plots of Ln(A1−A2) versus time are linear with slopes m (Eq 1). IC50 values were estimated from Eq 2-5, the inhibitor concentration [I] in the assay mixture and values of m in the presence (mi), absence (mo) of the inhibitor, the value of m observed for the non-MIF blank (mn), the MIF concentration (e), and the specificity constant for the MIF catalyzed reaction (kcat/Km). Ln(A1−A2)=−mt (Eq 1) F=(mi−mn)/(mo−mn) (Eq 2) Wherein mo−mn=ekcat/Km (Eq 3) and mi−mn=(ekcat/Km)[…] (Eq 4) IC50=[I]F/(1−F) (Eq 5)
# The compounds listed in Table 1, provided herein, were prepared via procedures identical or similar to those described in the Examples 1-85. The listed compounds were >95% pure by HPLC. Each listed compound yielded a mass spectrum consistent with its structure. Concentrations of MIF tautomerase inhibitors used in the assay were verified by HPLC and the extinction coefficients of the inhibitors. The designated relative potency of MIF tautomerase inhibitors is based on the IC50 as determined by the method described in Biochemical Assay as follows: A, IC50<1 μM; B, 1 μM≦IC50<5 μM; C, 5 μM≦IC50<10 μM; D, 10 μM≦IC50<50 μM; E, 50 μM≦IC50<200 μM.
row,SMILES,IC50 [nM]
1,CC(C)(O)[C@H]1CC[C@H](CN2Cc3ccc(O)cc3C2=O)CC1,< 1000
2,COC(C)[C@H]1CC[C@H](CN2Cc3ccc(O)c(F)c3C2=O)CC1 (some centres unmarked),1000 to 5000
3,N[C@@H](COc1cccc(OC[C@H]2CC[C@H](CN3Cc4ccc(O)c(F)c4C3=O)CC2)c1)C(=O)O,< 1000
4,CC(C)C[C@@H](NC(C)C1CCC(CN2Cc3ccc(O)c(F)c3C2=O)CC1)C(=O)O (some centres unmarked) [drawing 107],< 1000
5,"COC(=O)[C@@H](CO)NC(C)[C@H]1CC[C@H](CN2Cc3ccc(O)c(F)c3C2=O)CC1 (single isomer, unassigned)",< 1000
6,O=C(OC1CCCC1)C1CCC(CCN2Cc3ccc(O)cc3C2=O)CC1 (centres unmarked) [drawing 139],1000 to 5000
7,CC(Oc1cccc(F)c1)[C@H]1CC[C@H](CN2Cc3cc(F)c(O)cc3C2=O)CC1 (mixture of isomers) [drawing 62],< 1000
8,O=C1c2cc(O)ccc2CN1C[C@H]1CC[C@H](C(O)C2CCCCC2)CC1 (some centres unmarked),< 1000
9,O=C(OC1CCCC1)C1CCC(CCN2Cc3ccc(O)cc3C2=O)CC1 (centres unmarked) [drawing 138],1000 to 5000
10,CC(Oc1cccc(F)c1)[C@H]1CC[C@H](CN2Cc3ccc(O)c(F)c3C2=O)CC1 (some centres unmarked),< 1000
11,CC(=O)N(C)CCOc1cccc(OC[C@H]2CC[C@H](CN3Cc4ccc(O)c(F)c4C3=O)CC2)c1,< 1000
12,CC([C@H]1CC[C@H](CN2Cc3ccc(O)cc3C2=O)CC1)N1CCOCC1 (some centres unmarked),< 1000
13,O=C1c2cc(O)ccc2CN1C[C@H]1CC[C@H](C(=O)OC2CCCCC2)CC1,1000 to 5000
14,COC(=O)CCCN1Cc2ccc(O)cc2C1=O,5000 to 10000
15,O=C1c2cc(O)ccc2CN1C1CCCCC1,5000 to 10000
16,O=C1c2cc(O)ccc2CN1CC1CCCCCC1,1000 to 5000
17,"C[C@@H](OC(=O)CCC(=O)O)[C@H]1CC[C@H](CN2Cc3ccc(O)c(F)c3C2=O)CC1 (single isomer, unassigned)",< 1000
18,CC(=O)N[C@@H](COc1cccc(OC(C)[C@H]2CC[C@H](CN3Cc4ccc(O)c(F)c4C3=O)CC2)c1)C(=O)O (some centres unmarked),< 1000
19,CC1CCCCC1N1Cc2ccc(O)cc2C1=O (centres unmarked),10000 to 50000
20,CC(NCC(=O)O)[C@H]1CC[C@H](CN2Cc3ccc(O)c(F)c3C2=O)CC1 (some centres unmarked),< 1000
21,COC(=O)[C@H](C)NC(C)C1CCC(CN2Cc3ccc(O)c(F)c3C2=O)CC1 (some centres unmarked),< 1000
22,CNC(=O)[C@H](Cc1ccccc1)NC(C)C1CCC(CN2Cc3ccc(O)c(F)c3C2=O)CC1 (some centres unmarked) [drawing 100],< 1000
23,O=C1c2cc(O)ccc2CN1C[C@H]1CC[C@H](CO)CC1,1000 to 5000
24,CC([C@H]1CC[C@H](CN2Cc3ccc(O)c(F)c3C2=O)CC1)N1CCOCC1 (some centres unmarked),< 1000
25,CC(=O)OC(CCC1CCCCC1)[C@H]1CC[C@H](CN2Cc3ccc(O)cc3C2=O)CC1 (some centres unmarked),< 1000

row,SMILES,IC50 [nM]
1,O=C1c2cc(O)ccc2CN1C[C@H]1CC[C@H](C(=O)N2CCOCC2)CC1,1000 to 5000
2,CCC(Oc1cccc(OC)c1)[C@H]1CC[C@H](CN2Cc3ccc(O)c(F)c3C2=O)CC1 (some centres unmarked),< 1000
3,O=C1OCc2ccc(OC[C@H]3CC[C@H](CN4Cc5ccc(O)cc5C4=O)CC3)cc21,< 1000
4,NC[C@H]1CC[C@H](CN2Cc3ccc(O)c(F)c3C2=O)CC1,1000 to 5000
5,CC(C)(C)COC(=O)[C@H]1CC[C@H](CN2Cc3ccc(O)cc3C2=O)CC1,< 1000
6,CC(Oc1cccc(F)c1)[C@H]1CC[C@H](CN2Cc3cc(F)c(O)cc3C2=O)CC1 (some centres unmarked),< 1000
7,COc1cc(F)cc(OC[C@H]2CC[C@H](CN3Cc4ccc(O)cc4C3=O)CC2)c1,< 1000
8,CC(O)[C@H]1CC[C@H](CN2Cc3cc(F)c(O)c(F)c3C2=O)CC1 (some centres unmarked),< 1000
9,O=C1c2cc(O)ccc2CN1CC1CCC(O)CC1 (centres unmarked),1000 to 5000
10,O=C1c2cc(O)ccc2CN1C[C@H]1CC[C@H](COc2cccc(F)c2)CC1,< 1000
11,CNC(=O)[C@H]1CC[C@H](CN2Cc3ccc(O)cc3C2=O)CC1,1000 to 5000
12,COC(=O)[C@H](NC(C)C1CCC(CN2Cc3ccc(O)c(F)c3C2=O)CC1)C(C)C (some centres unmarked),< 1000
13,CC1CCC(N2Cc3ccc(O)cc3C2=O)CC1 (centres unmarked),1000 to 5000
14,CC(C)C[C@@H](NC(C)C1CCC(CN2Cc3ccc(O)c(F)c3C2=O)CC1)C(=O)O (some centres unmarked) [drawing 104],< 1000
15,O=C1c2cc(O)ccc2CN1CC1CCCCC1,1000 to 5000
16,O=C1c2c(ccc(O)c2F)CN1C[C@H]1CC[C@H](COc2cccc(F)c2)CC1,< 1000
17,CC(Oc1cccc(OCCN(C)C)c1)[C@H]1CC[C@H](CN2Cc3ccc(O)c(F)c3C2=O)CC1 (some centres unmarked),< 1000
18,CC(=O)[C@H]1CC[C@H](CN2Cc3ccc(O)c(F)c3C2=O)CC1,< 1000
19,CC(OC(=O)c1ccccc1)[C@H]1CC[C@H](CN2Cc3ccc(O)c(F)c3C2=O)CC1 (some centres unmarked),< 1000
20,CC(C)NC(C)[C@H]1CC[C@H](CN2Cc3ccc(O)cc3C2=O)CC1 (some centres unmarked),1000 to 5000
21,COc1cccc(OC[C@H]2CC[C@H](CN3Cc4ccc(O)cc4C3=O)CC2)c1,< 1000
22,CC(O)[C@H]1CC[C@H](CN2Cc3cc(F)c(O)cc3C2=O)CC1 (some centres unmarked),< 1000
23,CC(=O)NC[C@H]1CC[C@H](CN2Cc3ccc(O)c(F)c3C2=O)CC1,< 1000
24,C[C@H](O)[C@H]1CC[C@H](CN2Cc3ccc(O)c(F)c3C2=O)CC1,< 1000
25,CNCCOc1cccc(OC(C)[C@H]2CC[C@H](CN3Cc4ccc(O)c(F)c4C3=O)CC2)c1 (some centres unmarked),< 1000

row,SMILES,IC50 [nM]
1,O=C1c2cc(O)ccc2CN1[C@H](CO)C1CCCCC1,10000 to 50000
2,CC(C)[C@@H](CO)NC(C)[C@H]1CC[C@H](CN2Cc3ccc(O)cc3C2=O)CC1 (some centres unmarked) [drawing 150],1000 to 5000
3,O=C1c2cc(O)ccc2CN1C[C@H]1CC[C@H](COc2ccccc2)CC1,< 1000
4,O=C1c2cc(O)ccc2CN1CCc1cccc(O)c1,1000 to 5000
5,COc1cccc(OC(C)[C@H]2CC[C@H](CN3Cc4cc(F)c(O)c(F)c4C3=O)CC2)c1 (some centres unmarked),< 1000
6,CC(N)[C@H]1CC[C@H](CN2Cc3cc(Cl)c(O)c(F)c3C2=O)CC1 (some centres unmarked),1000 to 5000
7,O=C(OC1CCCCC1)c1ccc(CN2Cc3ccc(O)cc3C2=O)cc1,10000 to 50000
8,CNC(=O)CCNC(C)C1CCC(CN2Cc3ccc(O)c(F)c3C2=O)CC1 (centres unmarked),< 1000
9,CC(N[C@@H](C)C(=O)O)C1CCC(CN2Cc3ccc(O)c(F)c3C2=O)CC1 (some centres unmarked),< 1000
10,CC(NCC(N)=O)[C@H]1CC[C@H](CN2Cc3ccc(O)c(F)c3C2=O)CC1 (some centres unmarked),< 1000
11,"CC(C)[C@@H](NC(C)[C@H]1CC[C@H](CN2Cc3ccc(O)c(F)c3C2=O)CC1)C(=O)O (single isomer, unassigned)",< 1000
12,CC(NC(CO)CO)C1CCC(CN2Cc3ccc(O)c(F)c3C2=O)CC1 (centres unmarked),< 1000
13,CC(Oc1cccc(OC[C@H](N)C(=O)O)c1)[C@H]1CC[C@H](CN2Cc3ccc(O)c(F)c3C2=O)CC1 (some centres unmarked),< 1000
14,O=C1c2cc(O)ccc2CN1[C@@H](CO)C1CCCCC1,10000 to 50000
15,COC(=O)[C@@H](C)NC(C)C1CCC(CN2Cc3ccc(O)c(F)c3C2=O)CC1 (some centres unmarked) [drawing 112],< 1000
16,"COC(=O)[C@H](C)NC(C)[C@H]1CC[C@H](CN2Cc3ccc(O)c(F)c3C2=O)CC1 (single isomer, unassigned)",< 1000
17,CC(N[C@H](CO)C(=O)O)C1CCC(CN2Cc3ccc(O)c(F)c3C2=O)CC1 (some centres unmarked),< 1000
18,COC(=O)CCCCN1Cc2ccc(O)cc2C1=O,1000 to 5000
19,CC(Oc1cccc(F)c1)[C@H]1CC[C@H](CN2Cc3cc(F)c(O)cc3C2=O)CC1 (mixture of isomers) [drawing 63],< 1000
20,O=C1c2cc(O)ccc2CN1C[C@H]1CC[C@H](COc2cccc(O)c2)CC1,< 1000
21,CC(=O)N(C)CCOc1cccc(OC(C)[C@H]2CC[C@H](CN3Cc4ccc(O)c(F)c4C3=O)CC2)c1 (some centres unmarked),< 1000
22,O=C1c2cc(O)ccc2CN1CCC1CCCCC1,5000 to 10000
23,CC(C)[C@@H](CO)NC(C)[C@H]1CC[C@H](CN2Cc3ccc(O)cc3C2=O)CC1 (some centres unmarked) [drawing 110],< 1000
24,CC(C)NC(C)[C@H]1CC[C@H](CN2Cc3cc(F)c(O)c(F)c3C2=O)CC1 (some centres unmarked),< 1000
